Experimental data reported in article PMC7400577 (Scientific Reports, 2020).
Where two headings read alike, the source gives them in different places.

Key:
Type in all cases: cell-based
hBGT1 [1] = target: T1, hBGT1 (Homo sapiens, UniProt P48065); conditions: for IC50: 30 nM [3H]GABA, 3 min, CHO Flp-In cells stably expressing hBGT1; for subtype-selectivity for hBGT1 over the other hGATs: estimated from [3H]GABA uptake IC50 values
T1 construct: expressed in transfected cells
T1 sequence (P48065 1-614): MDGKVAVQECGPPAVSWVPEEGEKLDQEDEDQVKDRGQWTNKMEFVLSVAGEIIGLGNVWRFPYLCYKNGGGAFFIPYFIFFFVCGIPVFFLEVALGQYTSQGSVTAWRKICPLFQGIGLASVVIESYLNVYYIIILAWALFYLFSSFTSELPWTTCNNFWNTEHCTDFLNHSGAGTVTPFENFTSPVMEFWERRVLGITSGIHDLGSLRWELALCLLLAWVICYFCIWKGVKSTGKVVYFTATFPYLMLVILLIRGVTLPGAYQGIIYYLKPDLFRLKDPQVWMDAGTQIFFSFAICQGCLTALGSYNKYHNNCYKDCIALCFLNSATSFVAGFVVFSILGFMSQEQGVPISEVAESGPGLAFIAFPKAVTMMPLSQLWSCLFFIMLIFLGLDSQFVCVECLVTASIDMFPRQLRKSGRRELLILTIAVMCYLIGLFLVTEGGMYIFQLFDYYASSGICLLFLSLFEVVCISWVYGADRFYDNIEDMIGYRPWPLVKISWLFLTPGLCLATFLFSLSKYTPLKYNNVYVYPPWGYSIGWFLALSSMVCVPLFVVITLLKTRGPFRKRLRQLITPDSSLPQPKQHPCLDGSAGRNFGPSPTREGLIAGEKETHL
Description: (§1) CHO Flp-In and tsA201 cells were cultured at 37 °C in a humidified atmosphere of […] and 5% CO2. As previously described[38],[63], CHO Flp-In cells stably expressing the hGATs were cultured in Ham’s F12 Nutrient Mix supplemented with 10% FBS, 1% P/S and plasmocin (5 µg/mL) under the selection pressure of hygromycin B (200 µg/mL). DMEM with GlutaMAX-I supplemented with 10% FBS and 1% P/S was used as growth medium for the tsA201 cells, which were transfected with DNA constructs using PolyFect according to the manufacturer’s specifications (Qiagen, West Sussex, UK), but with half of the recommended reagent volumes.
(§2) Uptake assays were performed in PDL-coated white 96-well polystyrene cell culture microplates (PerkinElmer, Boston, MA, USA) as previously described[38],[63]. […] Assay buffer was HBSS supplemented with 20 mM HEPES, 1 mM CaCl2 and 1 mM MgCl2, pH 7.4. […] After termination, scintillation liquid (MicroScint-20, PerkinElmer) was added and the radioactivity measured in a TopCount NXT Microplate Scintillation Counter (PerkinElmer).
(§3) Data analysis and statistical evaluation were performed in GraphPad Prism 7.02 (GraphPad Software, San Diego, CA, USA). Concentration-uptake inhibition curves, generated from the radioligand-based uptake assays, were fitted by non-linear regression, using the equation for sigmoidal concentration–response with variable slope: Y = Bottom + (Top–Bottom)/(1 + 10^((logIC50 − X) × HillSlope)), where Y is the response, X is the logarithm of the concentration, Top and Bottom are the plateaus in same units as Y, logIC50 is the concentration giving a response halfway between Bottom and Top, and the HillSlope is the steepness of the curve. For the substrate concentration–response curves generated from the FMP assay, the same equation was used but with logEC50 instead for logIC50. Unless otherwise stated, data are presented as means ± S.E.M. of at least three independent pooled experiments performed in triplicates.

hGAT3 = target: T2, hGAT3 (Homo sapiens, UniProt P48066); test: [3H]GABA uptake inhibition at hGAT3 stably expressed in CHO Flp-In cells; conditions: 30 nM [3H]GABA, 3 min, CHO Flp-In cells stably expressing hGAT3
T2 construct: expressed in transfected cells
T2 sequence (P48066 1-632): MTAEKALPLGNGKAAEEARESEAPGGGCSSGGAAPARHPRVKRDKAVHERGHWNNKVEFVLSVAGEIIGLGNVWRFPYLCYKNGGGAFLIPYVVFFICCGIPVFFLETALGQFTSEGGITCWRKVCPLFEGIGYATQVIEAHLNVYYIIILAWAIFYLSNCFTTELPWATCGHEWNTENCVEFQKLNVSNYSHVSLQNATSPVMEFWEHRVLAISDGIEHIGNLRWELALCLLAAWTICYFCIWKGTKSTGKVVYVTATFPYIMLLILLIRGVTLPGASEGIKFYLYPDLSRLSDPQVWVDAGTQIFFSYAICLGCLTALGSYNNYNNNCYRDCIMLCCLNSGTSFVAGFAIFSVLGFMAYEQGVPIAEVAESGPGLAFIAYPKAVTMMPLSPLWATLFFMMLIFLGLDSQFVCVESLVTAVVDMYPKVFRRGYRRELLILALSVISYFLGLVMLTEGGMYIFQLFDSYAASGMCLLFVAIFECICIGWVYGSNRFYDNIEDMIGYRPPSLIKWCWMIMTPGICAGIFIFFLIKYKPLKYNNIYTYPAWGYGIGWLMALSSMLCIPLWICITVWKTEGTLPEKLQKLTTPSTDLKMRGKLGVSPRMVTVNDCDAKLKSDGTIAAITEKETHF
Description: as §1, §2, §3

hGAT1 = target: T3, hGAT1 (Homo sapiens, UniProt P30531); test: [3H]GABA uptake inhibition at hGAT1 stably expressed in CHO Flp-In cells; conditions: 30 nM [3H]GABA, 3 min, CHO Flp-In cells stably expressing hGAT1
T3 construct: expressed in transfected cells
Description: as §1, §2, §3

hGAT2 = target: T4, hGAT2 (Homo sapiens, UniProt Q9NSD5); test: [3H]GABA uptake inhibition at hGAT2 stably expressed in CHO Flp-In cells; conditions: 30 nM [3H]GABA, 3 min, CHO Flp-In cells stably expressing hGAT2
T4 construct: expressed in transfected cells
T4 sequence (Q9NSD5 1-602): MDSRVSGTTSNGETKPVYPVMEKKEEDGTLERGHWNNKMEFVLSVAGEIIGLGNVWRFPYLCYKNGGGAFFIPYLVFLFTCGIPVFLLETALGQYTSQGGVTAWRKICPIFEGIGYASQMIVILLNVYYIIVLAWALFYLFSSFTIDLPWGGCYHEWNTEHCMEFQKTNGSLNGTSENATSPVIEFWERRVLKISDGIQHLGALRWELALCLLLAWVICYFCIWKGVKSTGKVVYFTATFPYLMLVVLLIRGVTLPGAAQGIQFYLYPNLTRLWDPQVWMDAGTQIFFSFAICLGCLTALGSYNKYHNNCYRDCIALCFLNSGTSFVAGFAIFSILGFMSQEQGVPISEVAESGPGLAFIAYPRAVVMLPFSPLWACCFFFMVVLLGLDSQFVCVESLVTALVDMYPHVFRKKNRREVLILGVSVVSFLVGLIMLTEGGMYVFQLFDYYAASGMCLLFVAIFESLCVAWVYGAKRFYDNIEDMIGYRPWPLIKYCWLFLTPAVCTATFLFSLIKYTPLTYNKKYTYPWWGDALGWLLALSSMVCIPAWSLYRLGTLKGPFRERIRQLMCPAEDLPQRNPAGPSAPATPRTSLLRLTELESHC
Description: as §1, §2, §3

hBGT1 [2] = target: T1, hBGT1; test: FLIPR Membrane Potential (FMP) assay at hBGT1 stably expressed in CHO Flp-In cells
Description: The fluorescence-based FMP assay was performed as previously described, for the functional characterization of the electrogenic transport of substrates via hBGT1. Briefly, CHO Flp-In cells stably expressing hBGT1 or hGAT1 were plated (~ 50,000 cells/well) into black PDL-coated 96-well plates with clear bottom (VWR, Radnor, PA, USA). The next day, the growth medium was removed, and cells were washed once with HBSS assay buffer and FMP Blue Dye (Molecular Devices, Crawley, UK), added, and incubated. Ligands were added via the NOVOStar plate reader (BMG Labtech GmbH, Offenburg, Germany), preheated to 37 °C, approximately 10 min before reading of the cell plate. The fluorescence signals were measured for 33.8 s upon ligand addition using an emission and excitation wavelength of […], respectively. Electrogenic transport of substrates via hBGT1 will lead to an influx of the negatively charged FMP Blue dye that will bind to intracellular proteins and lipids resulting in an increase in the fluorescence signal.
as §3

hBGT1 wt = target: T5, hBGT1 wt (Homo sapiens, UniProt P48065); test: [3H]GABA uptake inhibition at wt hBGT1 transiently expressed in tsA201 cells; conditions: 30 nM [3H]GABA, tsA201 cells transiently expressing wt hBGT1
T5 construct: expressed in transfected cells; host or cells: tsA201 cells, transient (PolyFect), pcDNA5/FRT vector
T5 sequence (P48065 1-614): T1 sequence (P48065 1-614)

[3] = read-out: pIC50 ± S.E.M. hBGT1 (converted)
[4] = read-out: pIC50 ± S.E.M. hGAT2 (converted)

T3 sequence (P30531 whole entry): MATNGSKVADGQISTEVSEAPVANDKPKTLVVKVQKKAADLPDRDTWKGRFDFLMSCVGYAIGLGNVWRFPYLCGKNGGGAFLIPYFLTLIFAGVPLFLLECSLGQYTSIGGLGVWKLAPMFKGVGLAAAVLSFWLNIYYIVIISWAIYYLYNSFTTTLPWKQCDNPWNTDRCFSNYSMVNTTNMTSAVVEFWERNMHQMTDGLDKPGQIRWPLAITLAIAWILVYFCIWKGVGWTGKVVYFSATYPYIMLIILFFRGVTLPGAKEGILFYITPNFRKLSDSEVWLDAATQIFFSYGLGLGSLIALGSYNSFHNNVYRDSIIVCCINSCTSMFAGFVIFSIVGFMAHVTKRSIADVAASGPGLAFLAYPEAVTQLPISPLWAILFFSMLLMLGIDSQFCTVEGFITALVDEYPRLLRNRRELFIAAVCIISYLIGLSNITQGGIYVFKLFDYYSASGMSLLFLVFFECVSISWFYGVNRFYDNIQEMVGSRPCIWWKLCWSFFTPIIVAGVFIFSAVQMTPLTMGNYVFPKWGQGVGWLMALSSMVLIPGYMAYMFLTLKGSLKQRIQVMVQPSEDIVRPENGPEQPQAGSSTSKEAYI

| Structure (SMILES) | IC50 (hGAT3; read-out: IC50 hGAT3) | IC50 (hGAT1; read-out: IC50 hGAT1) | IC50 (hBGT1 [1]; read-out: IC50 hBGT1) | IC50 (hGAT2; read-out: IC50 hGAT2) | also measured |
| --- | --- | --- | --- | --- | --- |
| C[C@@H]1N=C(N)NC[C@@H]1C(=O)O (relative stereo) [l-15] | – | – | – | – | IC50 (hBGT1 [1]; [3]): 41.7 µM |
| NC1=N[C@@H](CCc2ccc(-c3ccccc3)cc2)[C@@H](C(=O)O)CN1 (relative stereo) [l-19] | > 1000 µM | > 1000 µM | > 1000 µM | > 1000 µM | – |
| C[C@@H]1N=C(N)NC[C@@H]1C(=O)O (single isomer, unassigned) [l-15b] | > 1000 µM | > 1000 µM | 442 µM | > 1000 µM | IC50 (hBGT1 [1]; [3]): 417 µM; subtype-selectivity for hBGT1 over the other hGATs (hBGT1 [1]; CHO Flp-In cells): 2–3 times |
| C[C@H]1N=C(N)NC[C@@H]1C(=O)O (single isomer, unassigned) [u-15a] | > 1000 µM | > 1000 µM | 292 µM | > 1000 µM | IC50 (hBGT1 [1]; [3]): 269 µM; subtype-selectivity for hBGT1 over the other hGATs (hBGT1 [1]; CHO Flp-In cells): 2–3 times |
| C[C@H]1N=C(N)NC[C@@H]1C(=O)O (single isomer, unassigned) [u-15b] | > 1000 µM | > 1000 µM | 85 µM | > 1000 µM | IC50 (hBGT1 [1]; [3]): 77.6 µM; subtype-selectivity for hBGT1 over the other hGATs (hBGT1 [1]; CHO Flp-In cells): at least 12 times |
| NC1=NCC(C(=O)O)CN1Cc1ccc(-c2ccccc2)cc1 (stereo not shown) [compound 5] | 396 µM | 1040 µM | 50 µM | 382 µM | IC50 (hGAT3; read-out: pIC50 ± S.E.M. hGAT3 (converted)): 380 µM; substrate character at hBGT1 in FMP assay (hBGT1 [2]; concentration-dependent increase in fluorescence signal): substrates for hBGT1; Mean Rmax as % of GABA Rmax ± S.E.M. (hBGT1 [2]; hBGT1 stably expressed in CHO Flp-In cells, FMP assay): 73 ± 2.8 % of GABA Rmax; EC50 (hBGT1 [2]; hBGT1 stably expressed in CHO Flp-In cells, three independent experiments): 194 µM; decrease of hBGT1 inhibitory potency compared to ATPCA (hBGT1 [1]; [3H]GABA uptake, CHO Flp-In cells): 20–65 fold; subtype-selectivity for hBGT1 over the other hGATs (hBGT1 [1]; CHO Flp-In cells): at least 7 times |
| NC1=NCC(C(=O)O)CN1CCC(c1ccccc1)c1ccccc1 (stereo not shown) [compound 6] | > 1000 µM | > 1000 µM | > 1000 µM | > 1000 µM | – |
| NC1=NCC(C(=O)O)CN1CCCC(c1ccccc1)c1ccccc1 (stereo not shown) [compound 7] | > 1000 µM | > 1000 µM | > 1000 µM | > 1000 µM | – |
| Cc1ccsc1C(=CCCN1CC(C(=O)O)CN=C1N)c1sccc1C (stereo not shown) [compound 8] | – | – | – | – | IC50 (hBGT1 wt; read-out: IC50 BGT1 wt): 621 µM; IC50 (hBGT1 wt; read-out: pIC50 ± S.E.M. BGT1 wt (converted)): 631 µM |
| NC1=NCC(C(=O)O)=CN1Cc1ccccc1 [compound 9] | – | – | – | – | IC50 (hBGT1 wt; read-out: IC50 BGT1 wt): > 1000 µM |
| O=C(O)C1CN=C(NCCc2ccccc2)NC1 (stereo not shown) [compound 10] | > 1000 µM | 439 µM | > 1000 µM | > 1000 µM | IC50 (hGAT1; read-out: pIC50 ± S.E.M. hGAT1 (converted)): 427 µM |
| CC1=C(C(=O)O)CNC(N)=N1 [compound 12] | > 1000 µM | > 1000 µM | > 1000 µM | > 1000 µM | – |
| CCCC1=C(C(=O)O)CNC(N)=N1 [compound 13] | > 1000 µM | > 1000 µM | > 1000 µM | 530 µM | IC50 (hGAT2; [4]): 501 µM |
| CC(C)C1=C(C(=O)O)CNC(N)=N1 [compound 14] | > 1000 µM | > 1000 µM | > 1000 µM | 1010 µM | IC50 (hGAT2; [4]): 955 µM |
| CCCC1N=C(N)NCC1C(=O)O (stereo not shown) [compound 16] | > 1000 µM | > 1000 µM | > 1000 µM | 601 µM | IC50 (hGAT2; [4]): 589 µM |
| CC(C)C1N=C(N)NCC1C(=O)O (stereo not shown) [compound 17] | > 1000 µM | > 1000 µM | > 1000 µM | > 1000 µM | – |
| NC1=NC(CCc2ccccc2)C(C(=O)O)CN1 (stereo not drawn) [l-18] | > 1000 µM | > 1000 µM | > 1000 µM | > 1000 µM | – |
